Activity calls are given as the source filed them. The rule behind the calls is not given here.
Key:
Assay type in all cases: functional
Clostridium perfringens [1] = experiment: Antimicrobial activity against Clostridium perfringens LFM1 assessed as susceptibility breakpoint by DIN-standardized microdilution method
Clostridium perfringens [2] = experiment: Antimicrobial activity against Clostridium perfringens LFM1 assessed as susceptibility breakpoint by DANMAP method
Escherichia coli = experiment: Antimicrobial activity against flo gene positive Escherichia coli
Clostridium perfringens [3] = experiment: Antimicrobial activity against Clostridium perfringens LFM1 assessed as susceptibility breakpoint by EUCAST method

CC[C@H]1OC(=O)[C@H](C)[C@@H](O[C@H]2C[C@@](C)(OC)[C@@H](O)[C@H](C)O2)[C@H](C)[C@@H](O[C@@H]2O[C@H](C)C[C@H](N(C)C)[C@H]2O)[C@](C)(O)C[C@@H](C)C(=O)[C@H](C)[C@@H](O)[C@]1(C)O
Activity (Clostridium perfringens [1]): inactive

CS(=O)(=O)c1ccc([C@@H](O)[C@@H](CF)NC(=O)C(Cl)Cl)cc1 [FLORFENICOL]
Activity (Clostridium perfringens [2]): inactive
MIC (Escherichia coli): > 32 µg/mL

CCC[C@@H]1C[C@@H](C(=O)N[C@@H]([C@H]2O[C@H](SC)[C@H](O)[C@@H](O)[C@H]2O)[C@H](C)Cl)N(C)C1
Activity (Clostridium perfringens [1]): inactive

O=C(N[C@H](CO)[C@H](O)c1ccc([N+](=O)[O-])cc1)C(Cl)Cl
Activity (Clostridium perfringens [2]): inactive

CC(=O)NC[C@H]1CN(c2ccc(N3CCOCC3)c(F)c2)C(=O)O1 [LINEZOLID]
Activity (Clostridium perfringens [1]): <=2 mg/L
Activity (Clostridium perfringens [2]): <=2 mg/L
Activity (Clostridium perfringens [3]): inactive
Activity (Clostridium perfringens [3]; record 2): <=2 mg/L
MIC (Escherichia coli): > 64 µg/mL

From ChEMBL document CHEMBL1240402 (2010)
